# Source: paper PMC10835127, “Viruses traverse the human proteome through peptide interfaces that can be biomimetically leveraged for drug discovery” (Proceedings of the National Academy of Sciences of the …, 2024)
# Tests used:
# [1] = test system: influenza A H1N1 virus; experiment: microbe, parasite or virus in culture; details: H1N1, A549, read-out: Neuraminidase activity assay IC50
# [2] = target: T1, NAF-1 (Homo sapiens, UniProt Q8N5K1); experiment: In vitro NEET [2Fe-2S] cluster release, NAF-1; assay type: biochemical; details: recombinant NAF-1, 37 °C, absorbance 460 nm
# T1 construct: MitoNEET ([60]) and NAF-1 ([61]) cytosolic domains and MiNT ([62]) were purified from E. coli as previously published; made in house; host or cells: E. coli
# T1 sequence (Q8N5K1 61-135 limits assumed): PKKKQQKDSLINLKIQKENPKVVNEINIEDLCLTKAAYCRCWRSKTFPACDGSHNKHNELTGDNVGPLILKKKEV
# Procedure: MitoNEET ([60]) and NAF-1 ([61]) cytosolic domains and MiNT ([62]) were purified from E. coli as previously published. Experiments were performed in 96-well plates at 37 °C with […] of Fe-S cluster in a buffer composed of 50 mM Tris-HCl pH 7 and 100 mM NaCl. dEF3122 was dissolved in dimethyl sulfoxide (DMSO) at 10 mM. CPEP31 was dissolved in PBS at 10 mM. After 20 min of incubation of the protein with the molecule, NEET cluster release was followed by measuring the absorbance at 460 and 800 nm over time using a plate reader (SpectraMax ID3). The absorbance at 460 nm was corrected for the variation of the baseline (absorbance at 800 nm) over time and normalized at 1 at the beginning of the kinetics.
# [3] = Kinetic solubility; assay type: physicochemical; details: PBS pH 7.4 buffer, pH 7.4, aqueous buffer, kinetic from dmso stock
# Procedure: 10 mM DMSO Stock solutions of tested compounds were distributed into filtration plate (Multiscreen Durapore 0.45µm) containing PBS pH 7.4 buffer to a final maximum concentration of 130 μM (1.3 % DMSO/buffer). Solutions or suspensions were shaken for 30 min at room temperature. The samples were filtered under vacuum into a collection plate and diluted 50 % with ACN for UV analysis. Quantification was performed against a Reference plate containing the same tested compounds fully solubilized in ACN/PBS buffer 1:1. Reference and Sample plates were analyzed by UPLC/UV-MS using a generic UPLC method. […]
smiles,measurement,setting,value
O=C(Nc1scc(C2CCc3ccccc3C2)c1C(=O)O)c1ccccc1 (stereo not drawn) [dEF3122],IC50,[1],3 nM
same,interaction by [2Fe-2S] cluster release assay,[2],validated the interaction
same,solubility kinetic at 30 min,[3],< 5 µM
